Laboratory results: US4233299A, “4-Hydroxy-2H-1,2-benzothiazine-3-carboxamide-1,1-dioxides and salts thereof” (priority 1977, dated 1980)
“Also recorded” adds a separate entry of the source. Where two headings read alike, the source gives them in different places.

Key:
[1] = ulcerogenic effect on the stomach of the rat; type: in vivo, male Chbb:THOM-rats; conditions: rat, in vivo; for selectivity ratio: po, Table IV, ED50 ulcer / ED50 adjuvant arthritis prim. reaction, read-out: Therapeutic Ratio I/II; for TD50: Table II, daily oral administration for 3 days, limits in parentheses, Litchfield and Wilcoxon, read-out: Ulcerogenic activity in the stomach ED50
Description: (§1) The test was carried out on male Chbb:THOM-rats with an average body weight of 130 gm at the beginning of the study. The animals were fed with a standard diet (Altromin-R) ad libitum. The test compounds were administered perorally as a trituration in 1% methyl cellulose (1 ml/100 gm animal) by means of an esophageal sound once a day on three successive days. Four hours after the last administration the animals were killed. The stomachs were dissected and the mucosa was washed with water for subsequent macroscopic evaluation. […] Therap. 96, 99 (1949)].

stomach of the rat = assay: ulcerogenic effect on the stomach of the rat; type: in vivo, male Chbb:THOM-rats
Description: as §1

[2] = acute toxicity in the mouse; type: in vivo, male and female Chbb: NMRI (SPF)-mice; conditions: in vivo; for selectivity ratio: po, Table V, LD50 / ED50 adjuvant arthritis prim. reaction, read-out: Therapeutic Ratio I/II (converted); for LD50 at 336 h: Table III, oral administration, mouse, deaths within 14 days, limits in parentheses
Description: (§2) The acute toxicity was determined on male and female Chbb: NMRI (SPF)-mice (sex ratio of each dosage group 1:1) having an average body weight of 20 gm. The test compound was administered perorally as a trituration in 1% of methyl cellulose (0.2 ml/10 gm animal) by means of an esophageal sound.
(§3) The calculation of the LD50 -values was effected according to the method of LITCHFIELD and WILCOXON, based on the percentage of animals which died within 14 days after administration of each dose.

[3] = test system: pain caused by inflammation (yeast edema); assay: activity against the pain caused by inflammation (Randall and Selitto); type: in vivo, male Chbb:THOM-rats; conditions: for ED50: po, 1.5 h, read-out: Randall-Selitto ED50
Description: The activity against the pain caused by inflammation was tested according to Randall and Selitto [Arch. Int. Pharmacodyn. 111, 409 (1957] in male Chbb:THOM-rats, having a body weight of 100 to 130 gm. The test compounds were administered perorally 90 minutes after the induction of the yeast edema by means of an esophageal tube. After further 90 minutes the pain threshold was determined in the animals treated with the test compound and in the control animals treated only with the vehicle methyl cellulose, and by using a linear regression analysis an ED50 was calculated with the confidence limits according to FIELLER, the ED50 being the dose which increased the pain threshold by 50%.

adjuvant arthritis = assay: activity against adjuvant arthritis in the rat; type: in vivo, male Chbb:THOM-rats; conditions: for ED50: Rattus norvegicus, 504 h; for antiphlogistic activity: in words, compared with compound A
Description: 0.1 ml of a 1% suspension of M. butyricum in viscous paraffin oil was administered by subplantar injection to the right hind paw of male Chbb:THOM-rats having an average body weight of 210 gm at the beginning of the test. […]
Using a linear regression analysis, an ED50 with the confidence limits according to FIELLER [Quart. J. Pharm. Pharmacol. 17, 117 (1944)] was calculated as the dosage which reduces the swelling of the paws by 50% in comparison to the control animals.

mouse = assay: acute toxicity in the mouse; type: in vivo, male and female Chbb: NMRI (SPF)-mice; conditions: compared with the other compounds; see Table V
Description: as §2, §3

[4] = Table I, daily oral administration, 21 days, dose per day, left hind paw swelling reduced by 50%, confidence limits according to FIELLER in parentheses, read-out: Activity against the secondary reaction ED50
[5] = Table I, daily oral administration, 21 days, dose per day, right hind paw swelling reduced by 50%, confidence limits according to FIELLER in parentheses, read-out: Activity against the primary reaction ED50

| SMILES | selectivity ratio [1] | TD50 [1] [mg/kg] | selectivity ratio [2] | LD50 at 336 h [2] [mg/kg] | antiphlogistic activity (adjuvant arthritis) | ED50 (adjuvant arthritis; [4]) [mg/kg] | ED50 (adjuvant arthritis; [5]) [mg/kg] | further results |
| --- | --- | --- | --- | --- | --- | --- | --- | --- |
| CN1C(C(=O)Nc2nccs2)=C(O)c2ccccc2S1(=O)=O [C, 4-Hydroxy-2-methyl-N-(2thiazolyl)-2H-1,2-benzothiazine-3-carboxamide-1,1-dioxide] | 1.23 | 0.95 | 12600 | 466 | weaker antiphlogistic activity | – | – | ulcerogenic effect on the stomach, relative to compound A (stomach of the rat; in words, compared with compound A): two times stronger; ED50 ([3]; in Rattus norvegicus): 9.2 mg/kg; ED50 (adjuvant arthritis; po, read-out: Activity against the primary reaction ED50): 0.77 mg/kg; ED50 (adjuvant arthritis; po, read-out: Activity against the secondary reaction ED50): 0.6 mg/kg |
| Cc1cnc(NC(=O)C2=C(O)c3ccccc3S(=O)(=O)N2C)s1 [Compound A, 4-Hydroxy-2-methyl-N-(5-methyl-2-thiazolyl)-2H-1,2-benzothiazine-3-carboxamide-1,1-dioxide] | 8.25 | 2.31 | 1680 | 470 | – | 0.12 | 0.28 | therapeutic ratio relative to compound C (stomach of the rat; Table IV ratio, times greater than that of compound C): about 7 times; stomach compatibility (stomach of the rat; in vivo): significantly better; therapeutic ratio relative to compound B (stomach of the rat; times greater than that of compound B): 10 times; difference between the antiphlogistically active doses and the toxic doses (mouse): distinctly higher than in the other compounds; ED50 ([3]; Table VI, peroral, rat, dose which increased the pain threshold by 50%): 5.6 mg/kg; effectiveness against the pain caused by inflammation ([3]; rat, compared with compound C): increased effectiveness; effect on the inflammatory primary reactions, relative to compound C (adjuvant arthritis; compared with compound C): three times greater; effect on the specific secondary reactions, relative to compound C (adjuvant arthritis; contralateral paw, compared with compound C): about 5 times |
| Cc1csc(NC(=O)C2=C(O)c3ccccc3S(=O)(=O)N2C)n1 [Compound B, 4-Hydroxy-2-methyl-N-(4-methyl-2-thiazolyl)-2H-1,2-benzothiazine-3-carboxamide-1,1-dioxide] | 0.84 | 0.31 | 1320 | 488 | does not completely reach the antiphlogistic activity of compound A | 0.21 | 0.37 | therapeutic ratio, in words (stomach of the rat; Table IV ratio, compared with compound C): still smaller than that of compound C; ulcerogenic activity, in words (stomach of the rat; stomach): strong ulcerogenic effect; also recorded: relatively more pronounced than its antiphlogistic activity; ulcerogenic effect on the stomach, relative to compound A (stomach of the rat; times stronger than that of compound A): more than 6 times |
